Experimental data from patent publication US20110118239A1, “PREPARATION AND ENANTIOMERIC SEPARATION OF 7-(3-PYRIDINYL)-1,7-DIAZASPIRO[4.4]NONANE AND NOVEL SALT FORMS OF THE RACEMATE AND ENANTIOMERS” (Targacept, Inc., priority 2008, published 2011).
Several values for one entry are separate records, joined by “and”; a condition that tells them apart may be missing. Equal entries are not always repeated. Structures can show the parent of a compound that is named as a salt.

Tests used:
[1] = Dynamic vapor sorption (DVS) analysis; assay type: physicochemical
Experimental: In a dynamic vapor sorption (DVS) apparatus, a sample of (R)-7-(3-pyridinyl)-1,7-diazaspiro[4.4]nonane mono-p-hydroxybenzoate (˜14.1 mg) was subjected to gradually increasing, followed by then gradually decreasing, humidity over a period of about 10 h (see details below). […] Given its relatively high melting point and crystalline nature, it is therefore a particularly good candidate for drug development.

[2] = system: A/J mice; assay: Depression model, tail suspension (TS); assay type: in vivo; conditions: 20 mg/kg, 10 min test
Experimental: On the day of the test, A/J mice were brought to acclimate to the testing room for one hour. Eight animals were tested in each run. Following pretreatment with vehicle, desipramine (20 mg/kg) or Compound A, p-hydroxybenzoate (0.1, 0.3, and 1 mg/kg), a piece of transparent (Scotch) tape was attached to the tail of each mouse from about mid-tail with approximately 2 cm of tape past the end of the tail. The mice were then placed in the tail suspension chambers (white polyvinylchloride cubicles measuring 33×33×31.75 cm; Med Associates Inc., St Albans, Vt.). The mice were suspended from the hook of the TS force transducer via the tail tape. The force transducer transmitted the movements of the mouse to a recording device connected to a computer. Immobility time, struggle time, and intensity were automatically recorded for each min during the 10 min test period. Upon completion of the TS test, the mice were returned to their home cage and then to the animal colony. The TS chambers were cleaned between sessions. Data were analyzed by repeated measures and one-way analysis of variance (ANOVA) followed by Fisher PLSD post-hoc comparisons. An effect was considered significant if p<0.05.

For `O=C(O)CCC(=O)O.c1cncc(N2CCC3(CCCN3)C2)c1` (centres unmarked), which melting point is on record?
The melting point was 131.5 to 133 °C.

Which melting point does the source give for `Cl.Cl.c1cncc(N2CCC3(CCCN3)C2)c1` (centres unmarked) here?
The melting point was 242 to 244 °C.

For `O.O=C(O)C(=O)O.O=C(O)C(=O)O.c1cncc(N2CCC3(CCCN3)C2)c1` (centres unmarked) (hydrate or solvate), which melting point is on record?
Its melting point is 200 to 201.5 °C.

With `c1cncc(N2CCC3(CCCN3)C2)c1` (racemic) (as salt: hydrochloride) [Compound C, 7-(3-pyridinyl)-1,7-diazaspiro[4.4]nonane] as the compound, how does the melting point read?
Its melting point is 227 to 232 °C and 227 to 233 °C.

Which stability to humidity ([1]; DVS) does the source give for `O=C(O)c1ccc(O)cc1.c1cncc(N2CC[C@]3(CCCN3)C2)c1` [(R)-7-(3-pyridinyl)-1,7-diazaspiro[4.4]nonane mono-p-hydroxybenzoate] here?
Its stability to humidity is “particularly stable to high humidity”.

What about the “weight gain during the course of the DVS study” value ([1]; increasing then decreasing humidity over about 10 h) of the same compound?
The value was “less than 0.2 wt %”.

Which results are given for `CNCCCN1c2ccccc2CCc2ccccc21` [desipramine, reference compound]?
struggle intensity compared to saline [2]: increased struggle intensity; total time immobile compared to saline [2]: decreased total time immobile
